Calls of active or inactive are those of the source. No cut-off for these calls is given here. Where a SMILES comes first, the peptide text is derived from it. The star is where a group is joined. ACC = NC(=O)Cc1cc(=O)oc2cc(N*)ccc12
Columns and labels:
Papain (Carica papaya) = biological target: T1, Papain (Carica papaya) (UniProt P00784); test: Activity at Carica papaya papain expressed in human A375 cells assessed as 7-amino-4-carbamoylmethylcoumarin release; type: cell-based; conditions: A-375
T1 sequence (whole entry): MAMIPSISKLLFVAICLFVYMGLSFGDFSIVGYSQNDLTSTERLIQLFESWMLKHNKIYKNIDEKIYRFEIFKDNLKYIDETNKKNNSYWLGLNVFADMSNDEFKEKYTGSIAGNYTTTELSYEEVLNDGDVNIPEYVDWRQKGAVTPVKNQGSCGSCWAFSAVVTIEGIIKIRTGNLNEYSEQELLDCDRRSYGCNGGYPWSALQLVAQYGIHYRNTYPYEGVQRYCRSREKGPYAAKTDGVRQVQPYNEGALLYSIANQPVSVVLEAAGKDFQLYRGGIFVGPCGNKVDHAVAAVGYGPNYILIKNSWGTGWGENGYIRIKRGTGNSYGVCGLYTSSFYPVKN

[1] = biological target: Integrin alpha-4/beta-1 (Homo sapiens) (UniProt P05556+P13612); test: Binding affinity to human integrin alpha4beta1 expressed in human A375 cells by flow cytometry; type: cell-based; conditions: A-375

Activity (Papain (Carica papaya)) [ng/min] | Activity [1] | SMILES
15.6 |  | CC(C)C[C@H](N)C(=O)N[C@@H](CC(=O)O)C(=O)N[C@H](C(=O)N[C@@H](CCCNC(=N)N)C(=O)N[C@@H](Cc1c[nH]c2ccccc12)C(=O)N[C@@H](CCC(N)=O)C(=O)N[C@@H](Cc1ccc(O)cc1)C(=O)N[C@H](C(=O)N1CCC[C@H]1C(=O)NCC(=O)N[C@@H](CCCCN)C(=O)N[C@@H](Cc1ccccc1)C(=O)N[C@H](C(=O)N[C@H](C(=O)N[C@@H](CCC(N)=O)C(=O)Nc1ccc2c(CC(N)=O)cc(=O)oc2c1)C(C)C)[C@H](C)O)C(C)C)C(C)C
 | inactive | CC(C)[C@H](NC(=O)[C@@H](NC(=O)[C@H](Cc1ccccc1)NC(=O)[C@H](CCCCN)NC(=O)CNC(=O)[C@@H]1CCCN1C(=O)[C@@H](NC(=O)[C@H](Cc1ccc(O)cc1)NC(=O)[C@H](CCC(N)=O)NC(=O)[C@H](Cc1c[nH]c2ccccc12)NC(=O)[C@@H](N)CCCNC(=N)N)C(C)C)[C@@H](C)O)C(=O)N[C@@H](CCC(N)=O)C(=O)Nc1ccc2c(CC(N)=O)cc(=O)oc2c1 (H-RWQYVPGKFTVQ-{ACC})
